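Grown in 96-well plates, cells were treated for 48 hours with each compound at five concentrations. Insufficient inhibition: endpoint recorded as highest concentration tested. Abbreviation: GI50, concentration required for 50% inhibition of growth.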 Activity calls are given as the source filed them. Rule as the data show it: active = GI50 up to about 1.1 µM and inactive = higher.
Assays:
Assay in all cases: DTP human tumour cell line panel, 48 h
A498 = tested on: A498
A549 = tested on: A549
DMS-273 = tested on: DMS-273
DU-145 = tested on: DU-145
EKVX = tested on: EKVX
HOP-18 = tested on: HOP-18
K562 = tested on: K562
MDA-MB-231 = tested on: MDA-MB-231
MDA-MB-435 = tested on: MDA-MB-435
MDA-N = tested on: MDA-N
Malme-3M = tested on: Malme-3M
OVCAR-5 = tested on: OVCAR-5
OVCAR-8 = tested on: OVCAR-8
PC-3 = tested on: PC-3
RXF 393 = tested on: RXF 393
SF-295 = tested on: SF-295
SK-MEL-28 = tested on: SK-MEL-28
TK-10 = tested on: TK-10
DMS-114 = tested on: DMS-114

Row | Structure (SMILES) | GI50 (A498) | GI50 (A549) | GI50 (DMS-273) | GI50 (DU-145) | GI50 (EKVX) | GI50 (HOP-18) | GI50 (K562) | GI50 (MDA-MB-231) | GI50 (MDA-MB-435) | GI50 (MDA-N) | GI50 (Malme-3M) | GI50 (OVCAR-5) | GI50 (OVCAR-8) | GI50 (PC-3) | GI50 (RXF 393) | GI50 (SF-295) | GI50 (SK-MEL-28) | GI50 (TK-10) | GI50 (DMS-114)
1 | CC1OC(n2cc(F)c(=O)[nH]c2=O)CCC1O (stereo unspecified) | > 66.5 µM (inactive) | 67.5 µM (inactive) | > 100 µM (inactive) | > 77.6 µM (inactive) | > 100 µM (inactive) | 67.5 µM (inactive) | > 100 µM (inactive) | > 100 µM (inactive) | > 100 µM (inactive) | 91.2 µM (inactive) | 99.8 µM (inactive) | > 100 µM (inactive) | > 85.3 µM (inactive) | > 100 µM (inactive) | > 79.6 µM (inactive) | > 84.5 µM (inactive) | > 100 µM (inactive) | > 100 µM (inactive) | 
2 | CC12CCC3C(CCC4=CC(O)CCC43C=O)C1(O)CCC2c1ccc(=O)oc1 (stereo unspecified) | 0.00802 µM (active) |  | 0.00497 µM (active) |  | 0.0124 µM (active) | 0.0107 µM (active) | 0.05 µM (active) |  |  |  |  | 0.0693 µM (active) | 0.00622 µM (active) |  |  | 0.0104 µM (active) | 0.05 µM (active) |  | 0.0014 µM (active)
3 | Cc1cc(O)nc(NNC(C#N)c2ccc(O)cc2)n1 (stereo unspecified) |  | > 100 µM (inactive) | > 100 µM (inactive) |  |  | > 100 µM (inactive) | > 100 µM (inactive) |  |  |  | > 100 µM (inactive) | > 100 µM (inactive) | > 100 µM (inactive) |  | > 100 µM (inactive) | > 100 µM (inactive) | > 100 µM (inactive) | > 100 µM (inactive) | > 100 µM (inactive)
4 | CN(C)CCC1(C2=CCCC2)CC/C(=C\c2ccccc2)C1=O (stereo unspecified) | 15.5 µM (inactive) | 20.3 µM (inactive) | 15.7 µM (inactive) |  | 11.8 µM (inactive) | 15.8 µM (inactive) | 13.8 µM (inactive) |  |  |  | 15.7 µM (inactive) | 19.6 µM (inactive) | 16.1 µM (inactive) |  | 12.5 µM (inactive) | 19.1 µM (inactive) | 21.8 µM (inactive) | 15.6 µM (inactive) | 16.1 µM (inactive)
5 | O=C(NCCNCCO)N/N=C/c1cccc([N+](=O)[O-])c1 | > 100 µM (inactive) | > 100 µM (inactive) | > 100 µM (inactive) |  |  | > 100 µM (inactive) | > 100 µM (inactive) |  |  |  | > 100 µM (inactive) | > 100 µM (inactive) | > 100 µM (inactive) |  | > 100 µM (inactive) | > 100 µM (inactive) | > 100 µM (inactive) | > 100 µM (inactive) | > 100 µM (inactive)
6 | CN[C@@H](C)[C@@H](NC)c1ccccc1 | > 100 µM (inactive) | > 100 µM (inactive) | > 100 µM (inactive) |  | > 100 µM (inactive) | > 100 µM (inactive) | > 100 µM (inactive) |  |  |  |  |  | > 100 µM (inactive) |  | > 100 µM (inactive) | > 100 µM (inactive) | > 100 µM (inactive) | > 100 µM (inactive) | > 100 µM (inactive)
7 | CCOC(=O)/C=C1\Oc2ccccc2C1(C)O (stereo unspecified) | > 100 µM (inactive) | > 100 µM (inactive) | > 100 µM (inactive) |  | > 100 µM (inactive) | > 100 µM (inactive) | > 100 µM (inactive) |  |  |  | > 100 µM (inactive) | > 100 µM (inactive) | > 100 µM (inactive) |  | > 100 µM (inactive) | > 100 µM (inactive) | > 100 µM (inactive) | > 100 µM (inactive) | > 100 µM (inactive)
8 | COC(=O)C#CC(N)=O | > 100 µM (inactive) | > 100 µM (inactive) | > 100 µM (inactive) |  | > 100 µM (inactive) | 53.5 µM (inactive) | 21.8 µM (inactive) |  |  |  | 13.4 µM (inactive) | > 100 µM (inactive) | 30.7 µM (inactive) |  | 31.4 µM (inactive) | > 100 µM (inactive) | 17.9 µM (inactive) | > 55.6 µM (inactive) | > 100 µM (inactive)
9 | Cc1cc(N(CCC#N)CCC#N)ccc1/N=N/c1cc(Cl)ccc1Cl | 20.1 µM (inactive) | 19.2 µM (inactive) | 14.4 µM (inactive) |  | 13.6 µM (inactive) | 10.2 µM (inactive) | 2.78 µM (inactive) |  |  |  | 4.98 µM (inactive) | 14.4 µM (inactive) | 7.74 µM (inactive) |  | 10.5 µM (inactive) | 19.6 µM (inactive) | 7.87 µM (inactive) | 11.1 µM (inactive) | 6.59 µM (inactive)
10 | CCn1c(SCC(=O)N/N=C/c2ccccc2)nc2ccccc2c1=O | 8.22 µM (inactive) | 4.89 µM (inactive) |  | 48.2 µM (inactive) | 26.3 µM (inactive) |  | 1.87 µM (inactive) | 14.3 µM (inactive) | 2.11 µM (inactive) | 2.54 µM (inactive) | 12.5 µM (inactive) | > 52 µM (inactive) | 16.3 µM (inactive) | 15 µM (inactive) | 7.19 µM (inactive) | 4.7 µM (inactive) | 39.4 µM (inactive) | > 55.1 µM (inactive) | 
11 | C=C(Br)CN(C)CC(=C)Br | > 100 µM (inactive) | > 100 µM (inactive) |  | > 100 µM (inactive) | > 100 µM (inactive) |  | > 100 µM (inactive) | > 100 µM (inactive) | > 100 µM (inactive) | > 100 µM (inactive) | > 100 µM (inactive) | > 100 µM (inactive) | > 100 µM (inactive) | > 100 µM (inactive) | > 100 µM (inactive) | > 100 µM (inactive) | > 100 µM (inactive) | 50.1 µM (inactive) | 
12 | Oc1ccc(-c2nc3ccc4ccccc4c3c3c2CCCC3)c(O)c1 | 51.1 µM (inactive) | 23.2 µM (inactive) |  | 35.3 µM (inactive) | 28.8 µM (inactive) |  | > 100 µM (inactive) | 12.9 µM (inactive) | 16.9 µM (inactive) | 17.2 µM (inactive) | 19.4 µM (inactive) | 20 µM (inactive) | 13.8 µM (inactive) | 21.6 µM (inactive) | 34.9 µM (inactive) | 37.2 µM (inactive) | 19.2 µM (inactive) | 37.1 µM (inactive) | 
13 | CC/C=C/C[C@H](O[Si](C)(C)C(C)(C)C)[C@H]1C[C@H]2O[C@H]([C@@H](O)C#C[Si](C)(C)C)C[C@H]2O1 | 17.9 µM (inactive) | 10.1 µM (inactive) |  | 14.7 µM (inactive) | 12.9 µM (inactive) |  | 13.9 µM (inactive) | 14.9 µM (inactive) | 12.3 µM (inactive) | 12.2 µM (inactive) | 11.9 µM (inactive) | 14.1 µM (inactive) | 14.8 µM (inactive) | 12.9 µM (inactive) | 6.65 µM (inactive) | 14.3 µM (inactive) | 14.2 µM (inactive) | 15.2 µM (inactive) | 
14 | CCOC(=O)C(SCCO)C(C(=O)OCC)n1ccc(=O)[nH]c1=O (stereo unspecified) | 75 µM (inactive) | > 100 µM (inactive) |  | > 100 µM (inactive) | 75.9 µM (inactive) |  | 5.55 µM (inactive) | 35.8 µM (inactive) | 22.4 µM (inactive) | 34.8 µM (inactive) | 12.5 µM (inactive) | 22.1 µM (inactive) | 25.1 µM (inactive) | > 64 µM (inactive) | 24.2 µM (inactive) | > 100 µM (inactive) | 28.8 µM (inactive) | > 56.8 µM (inactive) | 
15 | CCOC(=O)N/N=C(/N)Cc1ccccc1 | > 100 µM (inactive) | > 100 µM (inactive) |  | > 100 µM (inactive) | > 100 µM (inactive) |  | > 100 µM (inactive) | > 100 µM (inactive) | > 100 µM (inactive) | > 100 µM (inactive) | > 100 µM (inactive) | > 100 µM (inactive) | > 100 µM (inactive) | > 100 µM (inactive) | > 100 µM (inactive) | > 100 µM (inactive) | > 100 µM (inactive) | > 100 µM (inactive) | 
16 | COc1ccc(C2c3cc4c(cc3OC(N3CCOCC3)C2C)OCO4)cc1OC (stereo unspecified) | 6.46 µM (inactive) | 7.82 µM (inactive) |  | 9.42 µM (inactive) | 24.4 µM (inactive) |  | 4.31 µM (inactive) | 16.2 µM (inactive) | 2.04 µM (inactive) | 1.86 µM (inactive) | 11.1 µM (inactive) | 48.6 µM (inactive) | 20.4 µM (inactive) | 6.43 µM (inactive) | 5.89 µM (inactive) | 4.39 µM (inactive) | > 50.5 µM (inactive) | 15.6 µM (inactive) | 
17 | O=C(O)CNC(=O)c1cccc2c(=O)c3ccccc3[nH]c12 | > 100 µM (inactive) | > 100 µM (inactive) |  | > 100 µM (inactive) | > 100 µM (inactive) |  | > 100 µM (inactive) | > 100 µM (inactive) | > 100 µM (inactive) | > 100 µM (inactive) | > 100 µM (inactive) | > 100 µM (inactive) | > 100 µM (inactive) | > 100 µM (inactive) | > 100 µM (inactive) | > 100 µM (inactive) | > 100 µM (inactive) | > 100 µM (inactive) | 
18 | COC(=O)C1(F)C(=O)NC(=O)NC1O (stereo unspecified) | > 100 µM (inactive) | 90.8 µM (inactive) |  | > 100 µM (inactive) | 99.8 µM (inactive) |  | > 84.5 µM (inactive) | > 100 µM (inactive) | > 100 µM (inactive) | > 100 µM (inactive) | > 100 µM (inactive) | > 100 µM (inactive) | > 100 µM (inactive) | 50.8 µM (inactive) | > 100 µM (inactive) | > 100 µM (inactive) | > 100 µM (inactive) | > 100 µM (inactive) | 
19 | CC1C2CC(C(C3C(=O)C4CC3C(C)(C)C4C)C2=O)C1(C)C (stereo unspecified) | > 100 µM (inactive) | > 100 µM (inactive) |  | > 100 µM (inactive) | > 100 µM (inactive) |  | > 100 µM (inactive) | > 100 µM (inactive) | > 100 µM (inactive) | > 100 µM (inactive) | > 100 µM (inactive) | > 100 µM (inactive) | > 100 µM (inactive) | > 100 µM (inactive) | > 100 µM (inactive) | > 100 µM (inactive) | > 100 µM (inactive) | > 100 µM (inactive) | 

— ChEMBL document CHEMBL1201862, “PubChem BioAssay data set” (2004)
